Data taken from patent US6348460B1 (priority 1997, dated 2002).

Row | Structure (SMILES) | melting point
1 | Cc1ccc(N(SN2CCOCC2)C(=O)c2snnc2C)cc1 [b183, 4-methyl-N-(4-methylphenyl)-N-morpholinothio-1,2,3-thiadiazole-5-carboxamide] | 60 °C (dec.)
2 | Cc1nnsc1C(=O)NS(C)(=O)=O | 165 °C
